# Legend:
# [1] = Moisture uptake, modified Ph. Eur. 5.11 hygroscopicity method; type: physicochemical; details: mass increase during 24h storage over saturated ammonium sulfate solution, 25°C, about 100 mg
# Procedure: It determines the mass increase (% (m/mo)) during a 24h storage period over a saturated ammonium sulfate solution.
# [2] = Moisture uptake over saturated K2SO4 solution at about 100% relative humidity; details: about 25°C, amorphous except for CaCl2
# [3] = Glass transition of the maximally frozen system Tg' by differential scanning calorimetry; details: solutions contained 12.5% (m/V) of the respective amorphous solid
# [4] = Disintegration and dissolution time of lyophilisates, adjusted Ph. Eur. 7.4 oral lyophilisates method; type: physicochemical; details: lyophilisate about 1 mg from 12.5 % (m/V) solution, 300 µL TRIS buffer pH 7.4, about 22°C, no stirring
# Procedure: Disintegration of substances described in Examples 5 and 6 were determined according to the method described in the European Pharmacopoeia 7.4 in monograph "tablets" section "oral lyophilisates". The disintegration time is acceptable if the oral lyophilisate disintegrates within 3 minutes in 200mL of "purified water R" at temperatures between 15°C and 25°C. Herein, disintegration is the loss of the overall structure, whereas dissolution means that the compound is completely dissolved.
# This method was adjusted for the small volume lyophilisates which were used here (∼10 µL initial solution which corresponds to a lyophilysate mass of about 1 mg). Therefore the lyophilized product was added to 300 µL of TRIS buffer (adjusted pH 7.4 at 22°C) without any additional manipulation, e.g. shaking or stirring. In addition to the disintegration time the time until the whole product was completely dissolved, i.e. no visible particles detectable, has been determined at about 22°C (22.1 - 22.3 °C during the experiment).
# . It was not possible to lyophilize pure amorphous calcium lactate due to rapid solidification and partially crystallization of the solution, which contained also 12.5%(m/V) amorphous calcium lactate. Table 9: Disintegration time and dissolution time for substances
# [5] = Glass transition temperature Tg by differential scanning calorimetry; type: physicochemical
# Procedure: Hydranal® Coulomat AG Oven served as a reagent. About 10 mg of the substance was used for an expected residual moisture between 5 - 10%(m/m) and about 50 - 80 mg were used for an expected moisture content […]. […]
# Primary drying was carried out at Tinlet = -30° C / 30mtorr for 15h followed by secondary drying at 40°C / 30mtorr for 6h with a heating rate between the two steps of 0.3 °C/min. The glass transition temperature as well as the residual moisture content were measured after freeze drying for the respective substance.
# [6] = Hygroscopicity measurement by mass increase in a glove box at relative air humidity > 50%; type: physicochemical; details: 1.0g sample, 22.5°C to […], 96 hours, referring to the initial mass
# Procedure: The hygroscopicity of compounds was measured by weighing (Mettler AT261 "Delta Range" balance) in the samples at the start of the experiment and at certain time points within a total period of 96 hours. The increase in mass (in %) was calculated for each sample as: (mt -mt0)/(mt0) × 100% [formula] • wherein mt is the mass of the sample at a certain time t and Mt0 is the mass of the sample at the start when placing it in the glove box.
# citrated whole blood = experiment: ROTEM ex-tem assay, recalcification with freeze-dried pellets; details: freeze-dried CaCl2 pellets
# Procedure: The compatibility with coagulation measurement was determined using the ROTEM® device. The measurement was conducted according to the respective automated ROTEM® sequence. 300 µL citrated whole blood (obtained from healthy individuals) were used for each measurement. The pipetting of the respective liquid reagents was performed according to the sequence or was skipped for the solid reagents. […] Coagulation was initiated using the tissue factor based ex-tem® reagent.
# The ex-tem® assay was selected because of the tissue factor coagulation activation and the resulting short clotting times (CT). Therefore it was possible to investigate whether the freeze-dried products containing a high amount of solid would dissolve rapidly enough to assure complete recalcification and clotting times within a normal range.
# [7] = Solubility, Ph. Eur. 5.11 procedure in TRIS buffer
# Text: Table 3: Categorization of solubility according to Ph. Eur. 7.4
Compound,Ph. Eur. method Hygroscopicity [1],Uptake rate during 3h storage at 99.9 % rel. humidity (sat. K2SO4 sol.) [2],Glass transition of the frozen system (Tg') [3] [°C],Disintegration time [4] [s],Dissolution time (mean ± sdv) [4] [s],further results
"CC(O)C(=O)[O-].CC(O)C(=O)[O-].[Ca+2] (stereo not shown) [CL, calcium lactate]",30.28 %(m/mo,0.384 ratio compared to CaCl2,–,–,–,–
"calcium pantothenate [CP, reference compound]",22.02 %(m/mo,–,-25.28,<1,6 ± 1,–
"calcium gluconate [CG, reference compound]",20.16 %(m/mo,0.214 ratio compared to CaCl2,-11.08,<1,9 ± 1,–
calcium lacto gluconate [CLG ME],–,0.204 ratio compared to CaCl2,-11.74,<1,19 ± 6,–
calcium ascorbate lactobionate [CALB],–,–,-13.28,<1,12 ± 1,–
calcium ascorbate [reference compound],31.77 %(m/mo,–,-24.61,<1,11 ± 1,–
calcium ascorbate gluconate [CAG],19.65 %(m/mo,–,-15.70,<1,11 ± 2,–
calcium lacto pantothenate [CLP],–,–,-23.02,<1,8 ± 1,–
Calcium lacto ascorbate [CLA],–,–,-20.18,<1,14 ± 3,–
calcium lacto lactobionate [CLLB],19.18 %(m/mo,0.357 ratio compared to CaCl2,-15.58,<1,18 ± 4,"Tg ([5]; CLLB ratio 0, moisture content 14 %(m/m)): 34,39 °C; Tg ([5]; CLLB ratio 0, moisture content 5,196 %(m/m)): 112,86 °C; Tg ([5]; CLLB ratio 0, moisture content 10,151 %(m/m)): 58,45 °C; Tg ([5]; CLLB ratio 34.82, moisture content 0 %(m/m)): 143.05 °C; Tg ([5]; CLLB ratio 34.82, moisture content 4.44 %(m/m)): 104.03 °C; Tg ([5]; CLLB ratio 34.82, moisture content 7.26 %(m/m)): 73.08 °C; Tg ([5]; CLLB ratio 34.82, moisture content 9.86 %(m/m)): 56.42 °C; Tg ([5]; CLLB ratio 34.82, moisture content 11.82 %(m/m)): 47.945 °C; Tg ([5]; CLLB ratio 34.82, moisture content 14.60 %(m/m)): 32.13 °C; Tg ([5]; CLLB ratio 82.77, moisture content 0 %(m/m)): 148.05 °C; Tg ([5]; CLLB ratio 82.77, moisture content 5.19 %(m/m)): 96.38 °C; Tg ([5]; CLLB ratio 82.77, moisture content 6.35 %(m/m)): 79.84 °C; Tg ([5]; CLLB ratio 82.77, moisture content 6.93 %(m/m)): 73.34 °C; Tg ([5]; CLLB ratio 82.77, moisture content 8.00 %(m/m)): 67.39 °C; Tg ([5]; CLLB ratio 82.77, moisture content 14.49 %(m/m)): 34.39 °C; Tg ([5]; CLLB ratio %(m(CL)/m(CLB)) = 100, moisture content 0 %(m/m) (annealed)): 140.08 °C; Tg ([5]; CLLB ratio %(m(CL)/m(CLB)) = 100, moisture content 5.10 %(m/m)): 82.46 °C; Tg ([5]; CLLB ratio %(m(CL)/m(CLB)) = 100, moisture content 8.20 %(m/m)): 64.81 °C; Tg ([5]; CLLB ratio %(m(CL)/m(CLB)) = 100, moisture content 13.87 %(m/m)): 30.65 °C"
calcium lactobionate pantothenate [CLBP],–,–,-18.84,<1,10 ± 2,–
"[Ca+2].[Cl-].[Cl-] [CaCl2, calcium chloride, reference compound]",CaCl2 = 113.9%(m/mo,1.000 ratio compared to CaCl2,–,–,–,mass increase [6]: over 20%; behaviour of freeze-dried pellets (hygroscopicity) (citrated whole blood): liquefied rapidly
"O=C([O-])[C@H](O)[C@@H](O)[C@H](O[C@@H]1O[C@H](CO)[C@H](O)[C@H](O)[C@H]1O)[C@H](O)CO.O=C([O-])[C@H](O)[C@@H](O)[C@H](O[C@@H]1O[C@H](CO)[C@H](O)[C@H](O)[C@H]1O)[C@H](O)CO.[Ca+2] [CLB, calcium lactobionate]",21.08 %(m/mo,0.226 ratio compared to CaCl2,-13.27,<1,13 ± 2,"Ph. Eur. method Solubility ([7]; 100mg substance, TRIS buffer isotonic pH = 7.4, 25.0°C, visual after 1 min. mixing and 15 min. storage): very soluble; Calculated solubility Cs ([7]; category limits of table 3 divided by Mr, 15 min): Cs ≥ 1.325 mol/L"
